We go through 37 compounds from patent publication US10772893B2, “2-(morpholin-4-yl)-1,7-naphthyridines” (BAYER PHARMA AKTIENGESELLSCHAFT, priority 2014, dated 2020).

The structures appear in SMILES notation. A value given as a limit tells only on which side of the number the result lay.

For the assay, the system named is HeLa cells. The assay is described as follows: Proliferation assay, crystal violet staining. The settings on record: Homo sapiens, 96 h, read-out: Inhibition of HeLa cell proliferation, HeLa cells, 4 days incubation.

Consider `C[C@@H]1COCCN1c1cc(-c2cn[nH]c2)c2ccnc(-c3ccn[nH]3)c2n1` [Example 269, 2-[(3R)-3-methylmorpholin-4-yl]-4-(1H-pyrazol-4-yl)-8-(1H-pyrazol-5-yl)-1,7-naphthyridine], for which the IC50 worked out at 405 nM.

For `C[C@@H]1COCCN1c1cc(-c2ncco2)c2ccnc(-c3ccn[nH]3)c2n1` [Example 270, 2-[(3R)-3-methylmorpholin-4-yl]-4-(1,3-oxazol-2-yl)-8-(1H-pyrazol-5-yl)-1,7-naphthyridine], the IC50 is 565 nM. With `Cc1nn(C)cc1-c1cc(N2CCOCC2)nc2c(-c3ccn[nH]3)nccc12` [Example 271, 4-(1,3-dimethyl-1H-pyrazol-4-yl)-2-(morpholin-4-yl)-8-(1H-pyrazol-5-yl)-1,7-naphthyridine] the figure was 1330 nM; with `Cc1c(-c2cc(N3CCOCC3)nc3c(-c4ccn[nH]4)nccc23)cnn1C` [Example 272, 4-(1,5-dimethyl-1H-pyrazol-4-yl)-2-(morpholin-4-yl)-8-(1H-pyrazol-5-yl)-1,7-naphthyridine], 648 nM; with `Cc1nn(C)c(C)c1-c1cc(N2CCOCC2)nc2c(-c3ccn[nH]3)nccc12` [Example 273, 2-(morpholin-4-yl)-8-(1H-pyrazol-5-yl)-4-(1,3,5-trimethyl-1H-pyrazol-4-yl)-1,7-naphthyridine], 999 nM. As to `COCCS(C)(=O)=Nc1cc(N2CCOC[C@H]2C)nc2c(-c3ccn[nH]3)nccc12` (stereo partly drawn) [Example 274, 4-{[(2-methoxyethyl)(methyl)oxido-λ^6-sulfanylidene]amino}-2-[(3R)-3-methylmorpholin-4-yl]-8-(1H-pyrazol-5-yl)-1,7-naphthyridine], the IC50 turned out to be 610 nM. With `C[C@@H]1COCCN1c1cc(N=S(C)(=O)c2ccc(Br)cc2)c2ccnc(-c3ccn[nH]3)c2n1` (stereo partly drawn) [Example 277, 4-{[(4-bromophenyl)(methyl)oxido-λ^6-sulfanylidene]amino}-2-[(3R)-3-methylmorpholin-4-yl]-8-(1H-pyrazol-5-yl)-1,7-naphthyridine] the figure was 401 nM; with `C[C@@H]1COCCN1c1cc(N=S(C)(=O)C(C)(C)C)c2ccnc(-c3ccn[nH]3)c2n1` (stereo partly drawn) [Example 278, 4-{[tert-butyl(methyl)oxido-λ^6-sulfanylidene]amino}-2-[(3R)-3-methylmorpholin-4-yl]-8-(1H-pyrazol-5-yl]-1,7-naphthyridine], 168 nM. With `O=S1(=Nc2cc(N3CCOCC3)nc3c(-c4ccn[nH]4)nccc23)CCCCC1` [Example 280, N-[2-(morpholin-4-yl)-8-(1H-pyrazol-5-yl)-1,7-naphthyridin-4-yl]hexahydro-1λ^4-thiopyran-1-imine 1-oxide] the figure was 417 nM; with `CC(C)C(C)(O)c1cc(N2CCOC[C@H]2C)nc2c(-c3ccn[nH]3)nccc12` (stereo partly drawn) [Example 281, 3-methyl-2-{2-[(3R)-3-methylmorpholin-4-yl]-8-(1H-pyrazol-5-yl)-1,7-naphthyridin-4-yl}butan-2-ol], 259 nM; with `C[C@@H]1COCCN1c1cc(C(C)(O)C2CCOCC2)c2ccnc(-c3ccn[nH]3)c2n1` (stereo partly drawn) [Example 282, 1-{2-[(3R)-3-methylmorpholin-4-yl]-8-(1H-pyrazol-5-yl)-1,7-naphthyridin-4-yl}-1-(tetrahydro-2H-pyran-4-yl)ethanol], 1180 nM.

As to `C[C@@H]1COCCN1c1cc(C(C)(O)C(C)(C)C)c2ccnc(-c3ccn[nH]3)c2n1` (stereo partly drawn) [Example 283, 3,3-dimethyl-2-{2-[(3R)-3-methylmorpholin-4-yl]-8-(1H-pyrazol-5-yl)-1,7-naphthyridin-4-yl}butan-2-ol], the IC50 came to 146 nM. With `CCCCC(C)(O)c1cc(N2CCOC[C@H]2C)nc2c(-c3ccn[nH]3)nccc12` (stereo partly drawn) [Example 284, 2-{2-[(3R)-3-methylmorpholin-4-yl]-8-(1H-pyrazol-5-yl)-1,7-naphthyridin-4-yl}hexan-2-ol] the figure was 852 nM; with `O=C(NC1CC1)c1ccc(-c2cc(N3CCOCC3)nc3c(-c4ccn[nH]4)nccc23)cc1` [Example 291, N-cyclopropyl-4-[2-(morpholin-4-yl)-8-(1H-pyrazol-5-yl)-1,7-naphthyridin-4-yl]benzamide], 1520 nM. For `Cc1ccncc1-c1cc(N2CCOCC2)nc2c(-c3ccn[nH]3)nccc12` [Example 292, 4-(4-methylpyridin-3-yl)-2-(morpholin-4-yl)-8-(1H-pyrazol-5-yl)-1,7-naphthyridine], the IC50 was 2640 nM.

Take `c1cc(-c2cc(N3CCOCC3)nc3c(-c4ccn[nH]4)nccc23)c2cc[nH]c2c1` [Example 294, 4-(1H-indol-4-yl)-2-(morpholin-4-yl)-8-(1H-pyrazol-5-yl)-1,7-naphthyridine]: the IC50 was determined as 2450 nM. As for `NC(=O)c1ccc(-c2cc(N3CCOCC3)nc3c(-c4ccn[nH]4)nccc23)cc1` [Example 296, 4-[2-(morpholin-4-yl)-8-(1H-pyrazol-5-yl)-1,7-naphthyridin-4-yl]benzamide], the IC50 was 2740 nM.

Consider `Fc1cccc(-c2cc(N3CCOCC3)nc3c(-c4ccn[nH]4)nccc23)c1` [Example 298, 4-(3-fluorophenyl)-2-(morpholin-4-yl)-8-(1H-pyrazol-5-yl)-1,7-naphthyridine], for which the IC50 stood at 2440 nM. With `Clc1ccc(-c2cc(N3CCOCC3)nc3c(-c4ccn[nH]4)nccc23)s1` [Example 299, 4-(5-chlorothiophen-2-yl)-2-(morpholin-4-yl)-8-(1H-pyrazol-5-yl)-1,7-naphthyridine] the figure was more than 3000 nM; with `FC(F)(F)c1ccccc1-c1cc(N2CCOCC2)nc2c(-c3ccn[nH]3)nccc12` [Example 301, 2-(morpholin-4-yl)-8-(1H-pyrazol-5-yl)-4-[2-(trifluoromethyl)phenyl]-1,7-naphthyridine], 2820 nM; with `FC(F)(F)c1cccc(-c2cc(N3CCOCC3)nc3c(-c4ccn[nH]4)nccc23)c1` [Example 303, 2-(morpholin-4-yl)-8-(1H-pyrazol-5-yl)-4-[3-(trifluoromethyl)phenyl]-1,7-naphthyridine], more than 3000 nM. With `Clc1cccc(-c2cc(N3CCOCC3)nc3c(-c4ccn[nH]4)nccc23)c1` [Example 304, 4-(3-chlorophenyl)-2-(morpholin-4-yl)-8-(1H-pyrazol-5-yl)-1,7-naphthyridine] the figure was more than 3000 nM; with `COc1cccc(-c2cc(N3CCOCC3)nc3c(-c4ccn[nH]4)nccc23)c1` [Example 306, 4-(3-methoxyphenyl)-2-(morpholin-4-yl)-8-(1H-pyrazol-5-yl)-1,7-naphthyridine], more than 3000 nM. With `c1coc(Cc2cc(N3CCOCC3)nc3c(-c4ccn[nH]4)nccc23)c1` [Example 310, 4-(furan-2-ylmethyl)-2-(morpholin-4-yl)-8-(1H-pyrazol-5-yl)-1,7-naphthyridine] the figure was more than 3000 nM. On to `Cc1cccc(-c2cc(N3CCOCC3)nc3c(-c4ccn[nH]4)nccc23)c1C` [Example 312, 4-(2,3-dimethylphenyl)-2-(morpholin-4-yl)-8-(1H-pyrazol-5-yl)-1,7-naphthyridine], for which the IC50 is more than 3000 nM. With `OCc1cccc(-c2cc(N3CCOCC3)nc3c(-c4ccn[nH]4)nccc23)c1` [Example 313, {3-[2-(morpholin-4-yl)-8-(1H-pyrazol-5-yl)-1,7-naphthyridin-4-yl]phenyl}methanol] the figure was 2540 nM; with `Fc1ccc(-c2cc(N3CCOCC3)nc3c(-c4ccn[nH]4)nccc23)cc1` [Example 314, 4-(4-fluorophenyl)-2-(morpholin-4-yl)-8-(1H-pyrazol-5-yl)-1,7-naphthyridine], more than 3000 nM. With `Clc1ccc(-c2cc(N3CCOCC3)nc3c(-c4ccn[nH]4)nccc23)cc1` [Example 316, 4-(4-chlorophenyl)-2-(morpholin-4-yl)-8-(1H-pyrazol-5-yl)-1,7-naphthyridine] the figure was more than 3000 nM; with `COc1cccc(-c2cc(N3CCOCC3)nc3c(-c4ccn[nH]4)nccc23)c1F` [Example 317, 4-(2-fluoro-3-methoxyphenyl)-2-(morpholin-4-yl)-8-(1H-pyrazol-5-yl)-1,7-naphthyridine], 2980 nM; with `Cc1ccccc1-c1cc(N2CCOCC2)nc2c(-c3ccn[nH]3)nccc12` [Example 318, 4-(2-methylphenyl)-2-(morpholin-4-yl)-8-(1H-pyrazol-5-yl)-1,7-naphthyridine], 2000 nM.

Take `CN(C)c1cccc(-c2cc(N3CCOCC3)nc3c(-c4ccn[nH]4)nccc23)c1` [Example 320, N,N-dimethyl-3-[2-(morpholin-4-yl)-8-(1H-pyrazol-5-yl)-1,7-naphthyridin-4-yl]aniline]: the IC50 was more than 3000 nM. With `CN(C)c1ccccc1-c1cc(N2CCOCC2)nc2c(-c3ccn[nH]3)nccc12` [Example 321, N,N-dimethyl-2-[2-(morpholin-4-yl)-8-(1H-pyrazol-5-yl)-1,7-naphthyridin-4-yl]aniline] the figure was more than 3000 nM. Take `CS(=O)(=O)Nc1ccccc1-c1cc(N2CCOCC2)nc2c(-c3ccn[nH]3)nccc12` [Example 322, N-{2-[2-(morpholin-4-yl)-8-(1H-pyrazol-5-yl)-1,7-naphthyridin-4-yl]phenyl}methanesulfonamide]: the IC50 was more than 3000 nM. With `CS(=O)(=O)Nc1ccc(-c2cc(N3CCOCC3)nc3c(-c4ccn[nH]4)nccc23)cc1` [Example 323, N-{4-[2-(morpholin-4-yl)-8-(1H-pyrazol-5-yl)-1,7-naphthyridin-4-yl]phenyl}methanesulfonamide] the figure was 2220 nM; with `CN(C)C(=O)c1ccc(-c2cc(N3CCOCC3)nc3c(-c4ccn[nH]4)nccc23)cc1` [Example 324, N,N-dimethyl-4-[2-(morpholin-4-yl)-8-(1H-pyrazol-5-yl)-1,7-naphthyridin-4-yl]benzamide], 2420 nM. With `C/C=C/c1cc(N2CCOCC2)nc2c(-c3ccn[nH]3)nccc12` [Example 325, 2-(morpholin-4-yl)-4-[(1E)-prop-1-en-1-yl]-8-(1H-pyrazol-5-yl)-1,7-naphthyridine] the figure was 999 nM. For the compound `Oc1ccc(-c2cc(N3CCOCC3)nc3c(-c4ccn[nH]4)nccc23)cc1` [Example 326, 4-[2-(morpholin-4-yl)-8-(1H-pyrazol-5-yl)-1,7-naphthyridin-4-yl]phenol], the IC50 is 2920 nM.
